Test results as given in paper PMC2792609, “Effect of methomyl on hepatic mixed function oxidases in rats” (Indian Journal of Pharmacology, 2008).

Assays:
[1] = tested on: cytochrome b5; experiment: Hepatic microsomal cytochrome b5 level; format: in vivo, rat
Method: (§1) Adult male rats (weighing 200-230 g) were divided into four groups of six animals each. Group 1 received an equivalent amount of saline and served as control. Animals from group 2, 3, and 4 were given methomyl 1, 2, and 4 mg/kg body weight i.p. respectively, between 8: 00 a.m. and 9:00 a.m., for three consecutive days. In the second set of experiments, adult male rats were divided into four groups. Animals from group 2, 3, and 4 were injected with 4 mg/kg body weight methomyl for one, three, and five successive days. The volume injected into the rats of body weight 200 g was 1 ml. In another experiment, adult female rats and old male rats (weighing 350-450 g, 8 months old) were divided into two groups of six animals each. Group 2 of each category received methomyl (4 mg/kg body weight, i.p., for three successive days), and group 1 of each category received an equivalent amount of saline and served as the control group.
The rats were sacrificed by cervical dislocation, 24 hours after the last dose. Their livers were perfused in situ with ice cold 1.15% KCl containing 0.05 mM EDTA, rapidly excised, blotted dry, weighed, minced and homogenized with two volumes of ice cold 0.25 M sucrose solution, in a Potter-Elvehjem type homogenizer. The homogenate was centrifuged at 10,000 × g for 10 min, in a refrigerated centrifuge (REMI C-24). The microsomes were isolated by the procedure described by of Cinti et al.[4] The microsomal pellet was suspended in phosphate buffer (0.1 M, pH 7.4) and the suspension was used for the microsomal enzyme assays. Microsomal protein content was measured by the Biuret method, using bovine serum albumin as the standard.[5]
The microsomal electron transport components (cytochrome P450 and cytochrome b5) were determined using Hitachi UV-Visible double beam recording spectrophotometer, by the procedure of Omura and Sato.[67] Cytochrome c reductase activity was determined using the method recommended by Masters et al.[8] Aminopyrine N-demethylase activity was assayed according to the procedure described by Schenkman et al.[9] Formaldehyde liberated during N-demethylation was estimated by the procedure described by Nash.[10] Aniline hydroxylase assay was performed using the procedure reported by Govindwar and Dalvi.[11]

[2] = tested on: aspartate aminotransferase (SGOT); experiment: Serum aspartate aminotransferase (SGOT) activity; format: in vivo, rat; details: for Increased activity of aspartate aminotransferase: 3 days
Method: (§2) Adult male rats (weighing 200-230 g) were divided into four groups of six animals each. Group 1 received an equivalent amount of saline and served as control. Animals from group 2, 3, and 4 were given methomyl 1, 2, and 4 mg/kg body weight i.p. respectively, between 8: 00 a.m. and 9:00 a.m., for three consecutive days. In the second set of experiments, adult male rats were divided into four groups. Animals from group 2, 3, and 4 were injected with 4 mg/kg body weight methomyl for one, three, and five successive days. The volume injected into the rats of body weight 200 g was 1 ml. […]
(§3) Alanine aminotransferase and aspartate aminotransferase activity was measured using the Reitman and Frankel[12] method. Alkaline phosphatase activity was measured using Span diagnostic kits.[13] Cholinesterase activity was measured using the kinetic test method of Knedel et al.[14]

[3] = tested on: Alkaline phosphatase; experiment: Serum alkaline phosphatase activity; format: in vivo, rat; details: for increase in serum alkaline phosphatase activity: 3 days
Method: as §1, with “Group 2 of each category received methomyl (4 mg/kg body weight, i.p., for three successive days), and group 1 of each category received an equivalent amount of saline and served as the control group.” left out
as §3

[4] = biological target: T1, Serum cholinesterase (Rattus norvegicus, UniProt Q9JKC1); experiment: Serum cholinesterase activity; format: in vivo; details: for depression of acetyl cholinesterase activity: 3 days
T1 construct: from tissue; host or cells: rat serum
Method: as §2, §3

[5] = tested on: Hemoglobin; experiment: Hemoglobin content; format: in vivo, rat; details: for decrease in hemoglobin content: 3 days
Method: as §2, with “Group” for “Adult male rats (weighing 200-230 g) were divided into four groups of six animals each. Group”, “In the second set of experiments, adult male rats were divided into four groups.” left out
Hemoglobin was measured using HLS-hemosafe reagent. The color obtained was measured colorimetrically at 530 nm.

[6] = tested on: aspartate aminotransferase (SGOT); experiment: Serum aspartate aminotransferase (SGOT) activity; format: in vivo, rat; details: female rats; for SGOT: for 3 days
[7] = tested on: alanine aminotransferase (SGPT); experiment: Serum alanine aminotransferase (SGPT) activity; format: in vivo, rat; details: female rats; for SGPT: for 3 days
[8] = tested on: plasma ChE; details: methomyl aerosol, male rats, repeated inhalation; cited from earlier work
[9] = female rats, 4 mg/kg body weight i.p., for 3 days
[10] = male rats, 1 mg/kg body weight i.p., for three days
[11] = male rats, 2 mg/kg body weight i.p., for three days
[12] = male rats, 4 mg/kg body weight i.p., for three days
[13] = female rats, 1 mg/kg body weight i.p., for 3 days
[14] = female rats, 2 mg/kg body weight i.p., for 3 days

T1 sequence (Q9JKC1 24-597): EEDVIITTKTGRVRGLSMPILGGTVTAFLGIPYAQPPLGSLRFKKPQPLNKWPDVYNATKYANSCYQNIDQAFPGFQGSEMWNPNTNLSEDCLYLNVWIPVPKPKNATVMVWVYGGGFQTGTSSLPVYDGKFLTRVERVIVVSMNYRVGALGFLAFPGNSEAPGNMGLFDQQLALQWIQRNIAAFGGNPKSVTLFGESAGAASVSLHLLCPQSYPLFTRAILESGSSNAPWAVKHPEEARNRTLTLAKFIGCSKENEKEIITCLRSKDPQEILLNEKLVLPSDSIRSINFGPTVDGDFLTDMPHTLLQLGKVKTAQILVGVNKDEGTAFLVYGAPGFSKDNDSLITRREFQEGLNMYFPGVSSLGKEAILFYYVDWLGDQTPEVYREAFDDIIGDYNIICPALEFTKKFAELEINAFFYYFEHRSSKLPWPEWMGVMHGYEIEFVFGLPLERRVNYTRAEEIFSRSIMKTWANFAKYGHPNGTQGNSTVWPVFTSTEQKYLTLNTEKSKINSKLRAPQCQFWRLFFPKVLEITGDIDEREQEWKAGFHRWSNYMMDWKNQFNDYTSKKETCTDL

CNC(=O)ON=C(C)SC [methomyl, S-methyl-N-(methyl carbomyl)-thioacetimidate]
decrease in the level of cytochrome b5 ([1]; adult female rat, 4 mg/kg i.p., three days, vs control): 21% | Cytochrome b5 ([1]; adult female rats, 4 mg/kg body weight, i.p., three days): 0.15 nmole/mg protein | Cytochrome b5 ([1]; adult male rats, 1 mg/kg i.p., for 3 days): 0.16 nmole/mg protein | Cytochrome b5 ([1]; adult male rats, 2 mg/kg i.p., for 3 days): 0.20 nmole/mg protein | Cytochrome b5 ([1]; adult male rats, 4 mg/kg i.p., for 3 days): 0.19 nmole/mg protein | change in cytochrome b5 ([1]; adult male rats, 4 mg/kg i.p., one, three and five days): No significant change | change in cytochrome b5 ([1]; adult male rats, all the three doses (1, 2 and 4 mg/kg i.p., 3 days)): No significant change | Cytochrome b5 ([1]; adult rats, 4 mg/kg i.p., 1 day of treatment): 0.25 nmole/mg protein | Cytochrome b5 ([1]; adult rats, 4 mg/kg i.p., 3 days of treatment): 0.29 nmole/mg protein | Cytochrome b5 ([1]; adult rats, 4 mg/kg i.p., 5 days of treatment): 0.28 nmole/mg protein | decrease in cytochrome b5 ([1]; old male rat, 4 mg/kg i.p., three days, vs control): 51% | Cytochrome b5 ([1]; old male rats, 4 mg/kg body weight, i.p., three days): 0.20 nmole/mg protein | SGOT [2, 9]: 51.0 u/l | Increased activity of aspartate aminotransferase ([2]; female rats, 4 mg/kg i.p.): 39% | SGOT [2, 10]: 35.7 u/l | SGOT [2, 11]: 37.9 u/l | Increased activity of aspartate aminotransferase ([2]; male rats, 2 mg/kg i.p.): 9% | SGOT [2, 12]: 40.9 u/l | Increased activity of aspartate aminotransferase ([2]; male rats, 4 mg/kg i.p.): 8% | Alkaline phosphatase [3, 13]: 19.0 KA units | increase in serum alkaline phosphatase activity ([3]; female rats, 1 mg/kg i.p.): 33% | Alkaline phosphatase [3, 14]: 23.0 KA units | increase in serum alkaline phosphatase activity ([3]; female rats, 2 mg/kg i.p.): 61% | Alkaline phosphatase [3, 9]: 26.7 KA units | increase in serum alkaline phosphatase activity ([3]; female rats, 4 mg/kg i.p.): 87% | Alkaline phosphatase [3, 10]: 23.4 KA units | increase in serum alkaline phosphatase activity ([3]; male rats, 1 mg/kg i.p.): 14% | Alkaline phosphatase [3, 11]: 26.4 KA units | increase in serum alkaline phosphatase activity ([3]; male rats, 2 mg/kg i.p.): 29% | Alkaline phosphatase [3, 12]: 28.6 KA units | increase in serum alkaline phosphatase activity ([3]; male rats, 4 mg/kg i.p.): 39% | Serum cholinesterase [4, 9]: 844 u/l | depression of acetyl cholinesterase activity ([4]; female rats, 4 mg/kg i.p.): 66% | Serum cholinesterase [4, 10]: 1120 u/l | depression of acetyl cholinesterase activity ([4]; male rats, 1 mg/kg i.p.): 15% | Serum cholinesterase [4, 11]: 949 u/l | depression of acetyl cholinesterase activity ([4]; male rats, 2 mg/kg i.p.): 28% | Serum cholinesterase [4, 12]: 848 u/l | depression of acetyl cholinesterase activity ([4]; male rats, 4 mg/kg i.p.): 35% | decrease in hemoglobin content ([5]; female rat, 1 mg/kg i.p.): 21% | decrease in hemoglobin content ([5]; female rat, 2 mg/kg i.p.): 21% | decrease in hemoglobin content ([5]; female rat, 4 mg/kg i.p.): 29% | Hemoglobin [5, 13]: 10.06 g/dL | Hemoglobin [5, 14]: 10.00 g/dL | Hemoglobin [5, 9]: 9.06 g/dL | decrease in hemoglobin content ([5]; male rat, 1 mg/kg i.p.): 16% | decrease in hemoglobin content ([5]; male rat, 2 mg/kg i.p.): 25% | decrease in hemoglobin content ([5]; male rat, 4 mg/kg i.p.): 29% | Hemoglobin [5, 10]: 9.60 g/dL | Hemoglobin [5, 11]: 8.60 g/dL | Hemoglobin [5, 12]: 8.10 g/dL | SGOT ([6]; 1 mg/kg body weight i.p.): 43.5 u/l | SGOT ([6]; 2 mg/kg body weight i.p.): 46.6 u/l | Increased activity of aspartate aminotransferase ([6]; 2 mg/kg i.p., 3 days): 26% | SGPT ([7]; 1 mg/kg body weight i.p.): 43.0 u/l | SGPT ([7]; 2 mg/kg body weight i.p.): 46.0 u/l | Increased activity of alanine aminotransferase ([7]; 2 mg/kg i.p., 3 days): 14% | effect on plasma ChE [8]: marked suppression
